According to patent US20100129319A1, “TREATMENT OF DISEASE OR INJURY OF THE NERVOUS SYSTEM USING AGENTS THAT DECREASE THE ACTIVITY OF THE MELANOCORTIN 4 RECEPTOR” (priority 2006, published 2010):
Values belong to the compound of their own block, whether it stands above or below them. Bridges are numbered along the chain shown (N, C = ends). [ ]: non-standard residue; d: D form. d2Nal = N[C@H](Cc1ccc2ccccc2c1)C(=O)O; dPhe(diCl) = diCl-D-Phe

What was measured:
[1] = target: melanocortin 4 receptor (MC4R), murine (Mus musculus) (UniProt P56450); test: cell-based or functional assay
melanocortin 4 receptor (MC4R), murine (Mus musculus), sequence (P56450 whole entry): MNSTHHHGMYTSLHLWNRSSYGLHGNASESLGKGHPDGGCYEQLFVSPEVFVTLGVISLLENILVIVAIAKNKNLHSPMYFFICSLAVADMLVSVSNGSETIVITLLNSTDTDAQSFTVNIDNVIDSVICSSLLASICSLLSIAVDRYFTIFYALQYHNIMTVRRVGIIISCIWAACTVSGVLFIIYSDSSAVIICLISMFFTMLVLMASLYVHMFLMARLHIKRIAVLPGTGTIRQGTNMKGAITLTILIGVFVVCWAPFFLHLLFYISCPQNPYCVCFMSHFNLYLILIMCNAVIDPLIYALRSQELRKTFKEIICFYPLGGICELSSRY

MC4R = MC4R (Homo sapiens, UniProt P32245); conditions: cited from earlier work; for Selectivity (over MC3): MC4R over MC3; for Ki: read-out: Affinity for MC4R (Ki)
MC4R, sequence (P32245 whole entry, species assumed): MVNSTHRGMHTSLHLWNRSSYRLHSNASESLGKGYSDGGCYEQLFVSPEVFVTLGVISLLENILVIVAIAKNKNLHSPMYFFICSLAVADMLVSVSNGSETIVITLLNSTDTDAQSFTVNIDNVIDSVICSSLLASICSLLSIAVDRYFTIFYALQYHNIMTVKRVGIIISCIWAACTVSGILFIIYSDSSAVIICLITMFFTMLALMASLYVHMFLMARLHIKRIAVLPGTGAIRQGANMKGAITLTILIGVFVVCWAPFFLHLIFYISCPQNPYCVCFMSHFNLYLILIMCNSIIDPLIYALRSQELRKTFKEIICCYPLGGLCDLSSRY

adult neural stem cells [2] = test: ATP assay (intracellular ATP, cell number) in suspension cultures; assay type: cell-based, mice; conditions: for ATP levels: 1-100 nM, 3 days, suspension cultures, vs control
Description: (§1) The anterior lateral wall of the lateral ventricle wall (LVW) of 5 week old mice was enzymatically dissociated at 37° C. for 20 min in 0.8 mg/mL hyaluronidase and 0.5 mg/mL trypsin in DMEM containing 4.5 mg/mL glucose and 80 units/mL DNase. The cells were diluted in 5 mL of DMEM/F12 medium (containing B27 supplement, […] HEPES Ph 7.4, 100 units/mL penicillin, and 100 micrograms/mL streptomycin). After passing through a 70 micron strainer, the cells were pelleted at 240×g for 5 minutes, washed and recentrifuged. The supernatant was subsequently removed and the cells resuspended in medium supplemented with 20 nanogram/mL EGF, plated out in culture dishes and incubated at 37° C. Neurosphere cultures were ready to be split approximately 7 days after plating.
(§2) To split the neurosphere cultures, neurospheres were collected by centrifugation at 240×g for 5 minutes. The supernatant was discarded and the neurospheres were resuspended in 0.5 mL Trypsin/EDTA in HBSS (1×) and incubated at 37° C. for 2 minutes. During this period, the neurospheres were triturated gently to aid dissociation. Following a further 2 min incubation at 37° C. and trituration, 2 volumes of DMEM-F12+B27 medium were added. The cells were pelleted at 220×g for 4 min and resuspended in DMEM/F12+B27-medium containing 10 ng/mL EGF and 5 ng/mL bFGF. Subsequently the cultures were plated out and incubated at 37° C.
Cells were harvested split as in example 1, except for omission of the growth factors in the media, and seeded as suspension cells, at a density of 10,000 cells/well on 96-well plates in DMEM/F12 supplemented with 1, 10 or 100 nM MC4R antagonist or without (control cells). Alternatively, adherent cells were seeded at a density of 30,000 cells/well on poly-D-lysine-coated 96-well plates in DMEM/F12 supplemented with 1% fetal calf serum (FCS). […]
The following experiment was performed in quadruplicate. […] Intracellular ATP was measured using a Cell Viability kit SL according to the manufacturer's instructions (#188-441, BioThema, Sweden). […]

[3] = system: neuronal stem/progenitor cell proliferation in the SVZ; conditions: i.c.v. infusion of 6.25, 62.5 or 625 ng/day for two weeks
Description: To further characterize MC4R antagonist-stimulation of neogenesis, in vivo studies were performed. The effect of HS014 on proliferation (BrdU incorporation) was tested over a two week period at doses ranging from 6.25 to 625 ng/24h. Administration was done by i.c.v. infusion into the right lateral ventricle. BrdU was administered together with HS014 i.c.v. The animal's body weight was measured throughout the experiment. After termination of the experiment, BrdU expression was detected by immunohistochemistry on brain sections from the subependymal layer of the lateral ventricle wall as well as on the sub granular cells in dentate gyrus. […]
As an additional marker for understanding whether a dose that is effective in eliciting a response controlled by the central nervous system, weight gain was also monitored throughout the experiment by weighing the animals. […]
At the end of the experiment the rats were anaesthetized with sodium pentobarbital (120 mg, i.p.) and transcardially perfused with 90 ml of 0.9% NaCl and 4% PFA solution. […] As detection, Vectastain Elite (Vector) 1/100 was used and finally, developing was done by Sigma fast DAB tablet monitored in microscope, sections were then counterstained by HTX followed by dehydration and clearing.
Quantification was performed using a Nikon eclipse E6000 microscope at a magnification of 40×. […]

adult neural stem cells [4] = test: BrdU incorporation ELISA in adherent cultures; assay type: cell-based, mice; conditions: 1-100 nM, 3 days, vs control
Description: as §1
as §2, with “The cells were pelleted at 220×g for 4 min and resuspended in DMEM/F12+B27-medium containing 10 ng/mL EGF and 5 ng/mL bFGF. Subsequently the cultures were plated out and incubated at 37° C.” left out
DNA synthesis is commonly used to measure cell proliferation. […] After incorporation if the thymidine analogue into DNA, BrdU was detected by immunoassay. […]

[5] = system: 6-OHDA-lesioned rat model of Parkinson's disease; test: Amphetamine-induced rotation in the 6-OHDA-lesioned rat model of Parkinson's disease (Example 5); assay type: in vivo; conditions: 62.5 ng/day i.c.v. for 2 weeks
Description: In this study, the neurorestorative action of HS014 (from Sigma Aldrich) was investigated in the 6-hydroxydopamine (6-OHDA)-lesioned rat model of Parkinson's disease where the animals have a partial, unilateral loss of dopaminergic neurons. The lesion is induced by a single injection of 6-OHDA in the median forebrain bundle (see below). Upon amphetamine stimulation, the lesioned animals will display ipsiversive rotational behavior due to the imbalance in dopamine release resulting from the unilateral loss of dopaminergic cells. This allows the functional effects of a compound tested in this model to be quantified by counting the number of amphetamine-induced rotations.
Male Sprague-Dawley rats weighing 280-320 g were housed in a temperature-controlled room under a 12 h light/dark cycle with free access to food and water. Thirty minutes prior to surgery, animals were injected intraperitoneally with pargyline (5 mg/kg) and desipramine (25 mg/kg). Rats were then placed in a stereotactic frame under general anaesthesia (Halothane). A small bur-hole was made in the right side of the skull. Each animal was given a unilateral injection of 4 μg, 6-OHDA (in 2 μl sterile water with 0.1% ascorbic acid) into the right medial forebrain bundle at co-ordinates −2.8 mm from bregma, 2 mm lateral to the midline, and 8.6 mm below skull according to the atlas of Paxinos and Watson. The 6-OHDA injection was made over a 5 min period using a 5 μl Hamilton syringe. The rats were allowed to recover for 5 weeks following the lesion. The animals were then implanted with an Alzet minipump attached to a cannula to allow infusion of HS014 or vehicle into the right lateral ventricle over a period of 2 weeks. The Alzet minipump was removed […].
24 rats were divided into 2 groups, individual rats being randomly assigned to a treatment group based on their baseline rotation (5 weeks post lesion) so they were equally distributed. […] Rotational activity was measured by counting the total number of turns for the duration of the experiment. […] Body weight was also recorded weekly. […]

[6] = i.c.v. 2×1 nanomoles daily for 6 days or 0.16 nanomoles per hour for 2 weeks; cited from earlier work
[7] = Body weight during i.c.v. infusion (Example 4); assay type: in vivo, rats
Description: BrdU was administered together with HS014 i.c.v.

MC3 = MC3 (Homo sapiens, UniProt P41968); conditions: printed in the column Selectivity (over MC3); cited from earlier work
MC3, sequence (P41968 whole entry, species assumed): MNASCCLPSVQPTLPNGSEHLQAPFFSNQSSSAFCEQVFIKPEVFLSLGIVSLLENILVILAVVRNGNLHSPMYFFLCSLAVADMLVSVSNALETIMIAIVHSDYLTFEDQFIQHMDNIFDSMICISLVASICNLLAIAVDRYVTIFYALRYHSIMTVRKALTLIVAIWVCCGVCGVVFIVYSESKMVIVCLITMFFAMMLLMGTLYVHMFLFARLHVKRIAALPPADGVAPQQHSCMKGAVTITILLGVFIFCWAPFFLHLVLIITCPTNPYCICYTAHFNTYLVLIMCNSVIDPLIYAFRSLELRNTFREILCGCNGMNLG

- proliferation in the ATP-assay, at 400 nM (times control) [1]: 1.6
Compound: Agouti (87-132) (peptide)

Compound: HS024
- Selectivity (over MC3) (MC4R): 20-fold
- Ki (MC4R): 0.29 nM

Compound: [acetyl group]-Cys-Glu-His-(D-2-Nal)-Arg-Trp-Gly-Cys-Pro-Pro-Lys-Asp-[amide group] (Ac-CEH[d2Nal]RWGCPPKD-NH2; disulfide 1-8 (inferred)) [HS014]
- ATP levels (adult neural stem cells [2]): increase ATP levels
- dose with greatest effect on neuronal stem/progenitor cell proliferation (BrdU counts, SVZ) [3]: 62.5 ng/day
- BrdU incorporation (adult neural stem cells [4]): increase BrdU incorporation
- persistence of improvement after administration was stopped [5]: maintained for at least two weeks
- rotation at week 4 compared to pre-pump levels ([5]; then 2 weeks without treatment): approximately 30%
- net ipsiversive rotations at weeks 1-4 compared to the pre-pump response ([5]; all P<0.01): significant reduction
- food intake and body weight [6]: considerable increase in food intake and body weight
- dose at which weight gain was first significant ([7]; i.c.v. infusion for two weeks): 62.5 ng/day
- dose with greatest weight gain ([7]; i.c.v. infusion for two weeks): 625 ng/day
- weight gain ([7]; i.c.v. infusion of 6.25, 62.5 or 625 ng/day for two weeks): increased in a dose-dependent manner
- Selectivity (over MC3) (MC4R): 10-fold
- Ki (MC4R): 3.2 nM

Compound: NCCC(=O)N[C@H](Cc1ccc(Cl)cc1Cl)C(=O)N1CCN(c2ccccc2CNCCc2cccs2)CC1 [Compound10, 4-{(2R)-[3-Aminopropionylamido]-3-(2,4-dichlorophenyl)propionyl}-1-{2-[(2-thienyl)ethylaminomethyl]phenyl}piperazine]
- potency in cAMP assay (MC3): No potency i cAMP

Compound: Agouti (87-132): endogenous MC4R antagonist peptide analogue (TPLSAPCVATRNSCKPPAPACCDPCASCQCRFFRSACSCRVLSLNC; UniProt P42127 87-132, looked up, fragment)
- increase in proliferation (ATP-assay) (adult neural stem cells [2]; at 400 nM): 1.6 times control

Compound: [acetyl group]-Cys-Glu-His-(diCl-D-Phe)-Arg-Trp-Gly-Cys-Pro-Pro-Lys-Asp-[amide group] (Ac-CEH[dPhe(diCl)]RWGCPPKD-NH2; not fully specified (bridges); also: cyclic, bridge not given here) [HS028]
- ATP levels (adult neural stem cells [2]): increase ATP levels
- Selectivity (over MC3) (MC4R): 80-fold
- Ki (MC4R): 0.95 nM
